# Columns and labels:
# [1] = Cytotoxicity against african green monkey Vero cells assessed as cell viability at 12.5 ug/ml by MTT assay; assay type: toxicity, cell-based; details: chlorocebus sabaeus, at 12.5 µg/mL, read-out: Activity
# [2] = Renal toxicity in Albino mouse assessed as change in renal corpuscles at 50 to 2000 mg/kg, po measured after 14 days; assay type: organism-based; details: in vivo, 336 h, dose 50-2000 mg/kg, time 14 day
# [3] = Renal toxicity in Albino mouse assessed as change in tubular capillaries at 50 to 2000 mg/kg, po measured after 14 days; assay type: organism-based; details: in vivo, 336 h, dose 50-2000 mg/kg, time 14 day
# [4] = Cytotoxicity against african green monkey Vero cells assessed as cell viability at 100 ug/ml by MTT assay; assay type: toxicity, cell-based; details: chlorocebus sabaeus, at 100 µg/mL, read-out: Activity
# [5] = Acute toxicity in Albino mouse assessed as change in SGPT count at 50 to 2000 mg/kg, po measured after 14 days (reference value: 52 IU/L); assay type: organism-based; details: in vivo, 336 h, dose 50-2000 mg/kg, time 14 day
# [6] = Acute toxicity in Albino mouse assessed as change in monocytes at 50 to 2000 mg/kg, po measured after 14 days (reference value: 1%); assay type: organism-based; details: in vivo, 336 h, dose 50-2000 mg/kg, time 14 day
# [7] = test system: Mycobacterium tuberculosis; assay: Antitubercular activity against Mycobacterium tuberculosis H37Rv incubated for 5 days by microtiter plate method; assay type: functional; details: 120 h, time 5 day
# [8] = Acute toxicity in Albino mouse assessed as change in ESR at 50 to 2000 mg/kg, po measured after 14 days (reference value: 10 millimeter); assay type: organism-based; details: in vivo, 336 h, dose 50-2000 mg/kg, time 14 day
# [9] = Renal toxicity in Albino mouse assessed as change in proximal convoluted tubules at 50 to 2000 mg/kg, po measured after 14 days; assay type: organism-based; details: in vivo, 336 h, dose 50-2000 mg/kg, time 14 day
# [10] = Cytotoxicity against african green monkey Vero cells assessed as cell viability at 25 ug/ml by MTT assay; assay type: toxicity, cell-based; details: chlorocebus sabaeus, at 25 µg/mL, read-out: Activity
# [11] = Acute toxicity in Albino mouse assessed as change in RBC count measured per million cells at 50 to 2000 mg/kg, po measured after 14 days (reference value: 9.15 microL); assay type: organism-based, Erythrocyte; details: in vivo, 336 h, dose 50-2000 mg/kg, time 14 day
# [12] = Hepatotoxicity in Albino mouse assessed as change in portal vein at 50 to 2000 mg/kg, po measured after 14 days; assay type: toxicity, organism-based; details: in vivo, 336 h, dose 50-2000 mg/kg, time 14 day
# [13] = Acute toxicity in Albino mouse assessed as change in eosinophils at 50 to 2000 mg/kg, po measured after 14 days (reference value: 3%); assay type: organism-based; details: in vivo, 336 h, dose 50-2000 mg/kg, time 14 day
# [14] = Pulmonary toxicity in Albino mouse assessed as appearance of cilia at 50 to 2000 mg/kg, po measured after 14 days; assay type: organism-based; details: in vivo, 336 h, dose 50-2000 mg/kg, time 14 day
# [15] = Pulmonary toxicity in Albino mouse assessed as change in alveolar sacs at 50 to 2000 mg/kg, po measured after 14 days; assay type: organism-based; details: in vivo, 336 h, dose 50-2000 mg/kg, time 14 day
# [16] = Acute toxicity in po dosed Albino mouse assessed as mortality after 14 days; assay type: organism-based; details: in vivo, time 14 day
# [17] = Cytotoxicity against african green monkey Vero cells assessed as cell viability at 50 ug/ml by MTT assay; assay type: toxicity, cell-based; details: chlorocebus sabaeus, at 50 µg/mL, read-out: Activity
# [18] = Cytotoxicity against african green monkey Vero cells assessed as cell viability at 6.25 ug/ml by MTT assay; assay type: toxicity, cell-based; details: chlorocebus sabaeus, at 6.25 µg/mL, read-out: Activity
# [19] = Acute toxicity in Albino mouse assessed as change in serum creatine level at 50 to 2000 mg/kg, po measured after 14 days (reference value: 0.9 mg/dl); assay type: organism-based; details: in vivo, 336 h, dose 50-2000 mg/kg, time 14 day
# [20] = Pulmonary toxicity in Albino mouse assessed as change in bronchi structure at 50 to 2000 mg/kg, po measured after 14 days; assay type: organism-based; details: in vivo, 336 h, dose 50-2000 mg/kg, time 14 day
# [21] = Cytotoxicity against african green monkey Vero cells assessed as cell viability at 3.125 ug/ml by MTT assay; assay type: toxicity, cell-based; details: chlorocebus sabaeus, at 3.125 µg/mL, read-out: Activity
# [22] = Acute toxicity in Albino mouse assessed as mortality at 50 mg/kg, po after 14 days; assay type: organism-based; details: in vivo, 336 h, time 14 day
# [23] = Renal toxicity in Albino mouse assessed as structural absorbability abnormalities at 50 to 2000 mg/kg, po measured after 14 days; assay type: organism-based; details: in vivo, 336 h, dose 50-2000 mg/kg, time 14 day
# [24] = Acute toxicity in Albino mouse assessed as mortality at 300 mg/kg, po after 5 to 8 hrs; assay type: organism-based; details: in vivo, time 5-8 hrs
# [25] = Hepatotoxicity in Albino mouse assessed as change in hepatic artery at 50 to 2000 mg/kg, po measured after 14 days; assay type: toxicity, organism-based, Liver; details: in vivo, 336 h, dose 50-2000 mg/kg, time 14 day
# [26] = Acute toxicity in Albino mouse assessed as change in neutrophils at 50 to 2000 mg/kg, po measured after 14 days (reference value: 75%); assay type: organism-based; details: in vivo, 336 h, dose 50-2000 mg/kg, time 14 day
# [27] = Hepatotoxicity in Albino mouse assessed as change in portal tracks at 50 to 2000 mg/kg, po measured after 14 days; assay type: toxicity, organism-based; details: in vivo, 336 h, dose 50-2000 mg/kg, time 14 day
# [28] = Cytotoxicity against african green monkey Vero cells by MTT assay; assay type: toxicity, cell-based; details: chlorocebus sabaeus
# [29] = Acute toxicity in Albino mouse assessed as change in ALP level at 50 to 2000 mg/kg, po measured after 14 days (reference value: 28 IU/L); assay type: organism-based; details: in vivo, 336 h, dose 50-2000 mg/kg, time 14 day
# [30] = Hepatotoxicity in Albino mouse assessed as change in central vein at 50 to 2000 mg/kg, po measured after 14 days; assay type: toxicity, organism-based; details: in vivo, 336 h, dose 50-2000 mg/kg, time 14 day
# [31] = Renal toxicity in Albino mouse assessed as change in renal tubules at 50 to 2000 mg/kg, po measured after 14 days; assay type: organism-based; details: in vivo, 336 h, dose 50-2000 mg/kg, time 14 day
# [32] = Acute toxicity in Albino mouse assessed as change in platelet count at 50 to 2000 mg/kg, po measured after 14 days (reference value: 3.24 mm3); assay type: organism-based; parameters: unit not given here; details: in vivo, 336 h, dose 50-2000 mg/kg, time 14 day
# [33] = Renal toxicity in Albino mouse assessed as change in Bowman's capsule at 50 to 2000 mg/kg, po measured after 14 days; assay type: organism-based; details: in vivo, 336 h, dose 50-2000 mg/kg, time 14 day
# [34] = Renal toxicity in Albino mouse assessed as change in distal convoluted tubules at 50 to 2000 mg/kg, po measured after 14 days; assay type: organism-based; details: in vivo, 336 h, dose 50-2000 mg/kg, time 14 day
# [35] = Pulmonary toxicity in Albino mouse assessed as appearance of goblet cells at 50 to 2000 mg/kg, po measured after 14 days; assay type: organism-based; details: in vivo, 336 h, dose 50-2000 mg/kg, time 14 day
# [36] = Renal toxicity in Albino mouse assessed as extravasation of RBC at 50 to 2000 mg/kg, po measured after 14 days; assay type: organism-based, Erythrocyte; details: in vivo, 336 h, dose 50-2000 mg/kg, time 14 day
# [37] = Acute toxicity in Albino mouse assessed as mortality at 2000 mg/kg, po after 2 to 4 hrs; assay type: organism-based; details: in vivo, time 2-4 hrs
# [38] = Acute toxicity in Albino mouse assessed as change in hemoglobin level at 50 to 2000 mg/kg, po measured after 14 days (reference value: 12.8 g/dl); assay type: organism-based; details: in vivo, 336 h, dose 50-2000 mg/kg, time 14 day
# [39] = Pulmonary toxicity in Albino mouse assessed as change in squamous pneumocytes at 50 to 2000 mg/kg, po measured after 14 days; assay type: organism-based; details: in vivo, 336 h, dose 50-2000 mg/kg, time 14 day
# [40] = Hepatotoxicity in Albino mouse assessed as change in bile duct at 50 to 2000 mg/kg, po measured after 14 days; assay type: toxicity, organism-based, Liver; details: in vivo, 336 h, dose 50-2000 mg/kg, time 14 day
# [41] = Acute toxicity in Albino mouse assessed as change in serum urea level at 50 to 2000 mg/kg, po measured after 14 days (reference value: 46 mg/dl); assay type: organism-based; details: in vivo, 336 h, dose 50-2000 mg/kg, time 14 day
# [42] = Acute toxicity in Albino mouse assessed as change in lymphocytes at 50 to 2000 mg/kg, po measured after 14 days (reference value: 21%); assay type: organism-based; details: in vivo, 336 h, dose 50-2000 mg/kg, time 14 day
# [43] = Acute toxicity in Albino mouse assessed as change in total leucocyte count at 50 to 2000 mg/kg, po measured after 14 days (reference value: 7400 mm3); assay type: organism-based; details: in vivo, 336 h, dose 50-2000 mg/kg, time 14 day
# [44] = Acute toxicity in Albino mouse assessed as change in LDH level at 50 to 2000 mg/kg, po measured after 14 days (reference value: 1052 IU/L); assay type: organism-based; details: in vivo, 336 h, dose 50-2000 mg/kg, time 14 day
# [45] = Acute toxicity in Albino mouse assessed as change in SGOT count at 50 to 2000 mg/kg, po measured after 14 days (reference value: 42 IU/L); assay type: organism-based; details: in vivo, 336 h, dose 50-2000 mg/kg, time 14 day
# [46] = Pulmonary toxicity in Albino mouse assessed as change in alveoli structure at 50 to 2000 mg/kg, po measured after 14 days; assay type: organism-based; details: in vivo, 336 h, dose 50-2000 mg/kg, time 14 day
structure (smiles),measurement,setting,value
O=C1C(Cl)=C(N2C(=O)C(Cl)C2c2ccc([N+](=O)[O-])cc2)C(=O)c2ccccc21 (stereo unspecified),viability at 12.5 ug/ml,[1],78%
same,Activity,[2],Non-Toxic
same,Activity,[3],Non-Toxic
same,viability at 100 ug/ml,[4],9.6%
same,Activity,[5],43.21 IU/L
same,Activity,[6],1%
same,MIC,[7],30 µM
same,Activity,[8],15 millimeter/hr
same,Activity,[9],Non-Toxic
same,viability at 25 ug/ml,[10],46.2%
same,Activity,[11],9.85
same,Activity,[12],Non-Toxic
same,Activity,[13],4%
same,Activity,[14],Non-Toxic
same,Activity,[15],Non-Toxic
same,LD50 at 336 h,[16],50 mg/kg
same,viability at 50 ug/ml,[17],21.4%
same,viability at 6.25 ug/ml,[18],100%
same,Activity,[19],0.33 mg/dL
same,Activity,[20],Non-Toxic
same,viability at 3.125 ug/ml,[21],100%
same,Activity,[22],Non-Toxic
same,Activity,[23],Non-Toxic
same,Activity,[24],Toxic
same,Activity,[25],Non-Toxic
same,Activity,[26],72%
same,Activity,[27],Non-Toxic
same,Activity,[28],Dose-Dependent Effect
same,Activity,[29],429.54 IU/L
same,Activity,[30],Non-Toxic
same,Activity,[31],Non-Toxic
same,Activity,[32],5.95
same,Activity,[33],Non-Toxic
same,Activity,[34],Non-Toxic
same,Activity,[35],Non-Toxic
same,Activity,[36],Non-Toxic
same,Activity,[37],Toxic
same,Activity,[38],13.2 g/dL
same,Activity,[39],Non-Toxic
same,Activity,[40],Non-Toxic
same,Activity,[41],37.75 mg/dL
same,Activity,[42],39%
same,Activity,[43],8800 mm3
same,Activity,[44],505 IU/L
same,Activity,[45],168.42 IU/L
same,Activity,[46],Non-Toxic

# Source: ChEMBL document CHEMBL5500384, “New synergistic benzoquinone scaffolds as inhibitors of mycobacterial cytochrome bc1 complex to treat multi-drug resistant tuberculosis” (Eur J Med Chem, 2024)
